Results on 15 molecules are retold here after patent publication US9301923B2, “Lipids, lipid compositions, and methods of using them” (NOVARTIS AG, priority 2009, dated 2016).

Molecules are shown by their SMILES. Values joined by “and” are separate entries in the source; they are usually repeats but may differ in a detail not shown here. Equal entries are not always repeated.

Data set [1] can be described thus: Particle size and PDI by dynamic light scattering (Malvern Zetasizer). The format is physicochemical. An outline of the steps: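 Nanoparticles diluted in PBS to a count rate of about 200-400 kcts and measured by dynamic light scattering; size given as intensity-weighted average diameter, with polydispersity index from the same measurement.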
Data set [2] is described as follows: pKa of the lipid by TNS fluorescence. The format is physicochemical. As to conditions: pKa. An outline of the steps: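 Lipid dissolved in ethanol (2 mM stock) and measured with TNS across eight buffers of differing pH, in water at standard temperature and pressure. Normalized fluorescence intensity plotted against pH and points joined by a smooth line to derive pKa, precise to about 0.2 units.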

The next data set deals with Factor VII. In words: Factor VII activity assay, in vivo liver delivery of FVII siRNA LNP. Details: species or system mouse. As to conditions: for FVII inhib %: ~48 h. The procedure, abridged:
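Female CD-1 mice (~25 g) given a single i.v. tail-vein dose of FVII siRNA in LNPs (cationic, stealth, neutral lipids), dosed as mg siRNA/kg. Plasma collected ~48 h post-injection; FVII activity read against a standard curve from pooled vehicle-control plasma.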

The mark [3] stands for this setting: lipid/DSPC/CHOL/AVANTI 880150P 50/28/18/4, N/P 3.43.
The mark [4] stands for this setting: lipid/no neutral lipid/CHOL/AVANTI 880150P 50/0/46/4, N/P 3.43.
[5] abbreviates: dose 1 mg/kg siRNA i.v., lipid/no neutral lipid/CHOL/AVANTI 880150P 50/0/46/4, N/P 3.43.
Where [6] appears, read: dose 3 mg/kg siRNA i.v., lipid/DSPC/CHOL/AVANTI 880150P 50/28/18/4, N/P 3.43.
[7] abbreviates: dose 3 mg/kg siRNA i.v., lipid/no neutral lipid/CHOL/AVANTI 880150P 50/0/46/4, N/P 3.43.
Where [8] appears, read: lipid/no neutral lipid/CHOL/GM-020 NOF 60/0/36/4, N/P 3.
[9] abbreviates: dose 1 mg/kg siRNA i.v., lipid/no neutral lipid/CHOL/GM-020 NOF 60/0/36/4, N/P 3.

`CCCCC/C=C\C/C=C\CCCCCCCCOCC(CN(C)C)OCCCCO[C@H]1CC[C@@]2(C)C(=CCC3C2CC[C@@]2(C)C3CC[C@@H]2[C@H](C)CCCC(C)C)C1` (stereo partly drawn) [E0173, 3-Dimethylamino-2-(Cholest-5-en-3-beta-oxybutan-4-oxy) -1-(cis,cis-9,12-octadecadienoxy)propane, reference compound]: the “Final size (nm)” value in data set [1] (setting [3]) was 98 nm; in data set [1] (setting [4]) it was 76 nm. In addition, the PDI in data set [1] (setting [3]) was 0.17; in data set [1] (setting [4]), 0.16. Also, the pKa in data set [2] came out at 6.73. In addition, the results for the FVII inhib % with Factor VII (setting [5]), in the data set on Factor VII (setting [6]) and in the data set with Factor VII (setting [7]) were 87.4%, 90.9% and 98.5%, respectively. Also, the “in vivo Factor VII inhibition” value in the data set on Factor VII (formulation containing the cationic lipid, RNAi construct specific to Factor VII, liver) is recorded as 98.5%.
In the case of `CCCCC/C=C\C/C=C\CCCCCCCCOCC(CN1CCOCCOCCOCC1)OCCOCCO[C@H]1CC[C@@]2(C)C(=CC[C@H]3[C@@H]4CC[C@H]([C@H](C)CCCC(C)C)[C@@]4(C)CC[C@@H]32)C1` (stereo partly drawn) [E0030], in data set [1] (setting [4]), the “Final size (nm)” value worked out at 155 nm and the PDI was determined as 0.08. In data set [2], this molecule returned a pKa of 5.38. In addition, in the data set with Factor VII (setting [7]), the FVII inhib % is reported as 12.4%.
On to `CCCCC/C=C\C/C=C\CCCCCCCCOCC(CN1CCCC1c1ccccc1)OCCOCCO[C@H]1CC[C@@]2(C)C(=CC[C@H]3[C@@H]4CC[C@H]([C@H](C)CCCC(C)C)[C@@]4(C)CC[C@@H]32)C1` (stereo partly drawn) [E0050], for which the “Final size (nm)” value in data set [1] (setting [3]) worked out at 100 nm; in data set [1] (setting [4]), 103 nm. In addition, the values for the PDI in data set [1] (setting [3]) and in data set [1] (setting [4]) were 0.21 and 0.097, respectively. Moreover, the pKa in data set [2] came out at 4.9. Further, the FVII inhib % in the data set on Factor VII (setting [6]) is on record as −7.2%; in the data set on Factor VII (setting [7]), −10.4%.
For `CCCCC/C=C\C/C=C\CCCCCCCCOCC(CN1CCC2(CC1)OCCO2)OCCOCCO[C@H]1CC[C@@]2(C)C(=CCC3C2CC[C@@]2(C)C3CC[C@@H]2[C@H](C)CCCC(C)C)C1` (stereo partly drawn) [E0016], the “Final size (nm)” value in data set [1] (setting [3]) came out at 97 nm; in data set [1] (setting [4]), 178 nm. Further, the PDI in data set [1] (setting [3]) is 0.175; in data set [1] (setting [4]) it was 0.206. Also, the pKa in data set [2] stood at 5.85. Besides, the FVII inhib % turned out to be 88.8% with Factor VII (setting [6]) and 59.9% in the data set on Factor VII (setting [7]).
Regarding `CCCCC/C=C\C/C=C\CCCCCCCCOCC(CN1C(C)CCC1C)OCCOCCO[C@H]1CC[C@@]2(C)C(=CCC3C2CC[C@@]2(C)C3CC[C@@H]2[C@H](C)CCCC(C)C)C1` (stereo partly drawn) [E0046], in data set [1] (setting [4]), the “Final size (nm)” value is 194 nm and the PDI stood at 0.116. The pKa in data set [2] stood at 5.75. Besides, the FVII inhib % in the data set on Factor VII (setting [7]) was found to be 12.7%.
Take `CCCCCCCC/C=C\CCCCCCCCOCC(CN1CCC(OC)C1)OCCO[C@H]1CC[C@@]2(C)C(=CC[C@H]3[C@@H]4CC[C@H]([C@H](C)CCCC(C)C)[C@@]4(C)CC[C@@H]32)C1` (stereo partly drawn) [E0062]: in data set [1] (setting [8]), the “Final size (nm)” value was found to be 145.1 nm and the PDI is 0.125. The molecule also had a pKa in data set [2] of 6.45. Moreover, the FVII inhib % in the data set on Factor VII (setting [9]) stood at 64.8%.
In the same order, the values of `CCCCC/C=C\C/C=C\CCCCCCCCOCC(CN1CCCCC1)OCCOCCOC(=O)CCC(=O)O[C@H]1CC[C@@]2(C)C(=CCC3C2CC[C@@]2(C)C3CC[C@@H]2[C@H](C)CCCC(C)C)C1` (stereo partly drawn) [E0060] are 90.25 nm, 0.171, 6.43 and 0.0%.
With `CCCCC/C=C\C/C=C\CCCCCCCCOCC(CN1CC[C@@H]2CCCC[C@H]2C1)OCCOCCO[C@H]1CC[C@@]2(C)C(=CCC3C2CC[C@@]2(C)C3CC[C@@H]2[C@H](C)CCCC(C)C)C1` (stereo partly drawn) [E0020], the “Final size (nm)” value in data set [1] (setting [3]) is 83 nm; in data set [1] (setting [4]), 81 nm. Further, the PDI in data set [1] (setting [3]) amounted to 0.138; in data set [1] (setting [4]) it was 0.084. This molecule registered a pKa in data set [2] of 6.08. Also, the FVII inhib % in the data set with Factor VII (setting [6]) worked out at 62.4%; in the data set on Factor VII (setting [7]), 51.4%.
As to `CCCCC/C=C\C/C=C\CCCCCCCCOCC(CN1CC=CCC1)OCCOCCO[C@H]1CC[C@@]2(C)C(=CCC3C2CC[C@@]2(C)C3CC[C@@H]2[C@H](C)CCCC(C)C)C1` (stereo partly drawn) [E0018], the “Final size (nm)” value in data set [1] (setting [3]) was 119 nm; in data set [1] (setting [4]) it was 103 nm and 140 nm. For the same molecule, the PDI in data set [1] (setting [3]) is 0.095; in data set [1] (setting [4]), 0.113 and 0.13. The molecule further returned a pKa in data set [2] of 5.9. Further, the results for the FVII inhib % with Factor VII (setting [5]), with Factor VII (setting [6]) and in the data set on Factor VII (setting [7]) were 40.5%, 91.8% and 98%, respectively.
For `CCCCC/C=C\C/C=C\CCCCCCCCOCC(CN1CC[C@@H]2CCCC[C@@H]2C1)OCCOCCO[C@H]1CC[C@@]2(C)C(=CCC3C2CC[C@@]2(C)C3CC[C@@H]2[C@H](C)CCCC(C)C)C1` (stereo partly drawn) [E0021], the “Final size (nm)” value in data set [1] (setting [3]) amounted to 85 nm; in data set [1] (setting [4]), 72 nm. Also, the PDI was 0.22 in data set [1] (setting [3]) and 0.184 in data set [1] (setting [4]). Also, the pKa in data set [2] is 5.13. The FVII inhib % in the data set with Factor VII (setting [6]) is 24.5%; in the data set on Factor VII (setting [7]), 52.8%.
Take `CCCCC/C=C\C/C=C\CCCCCCCCOCC(CN1CCC(OC)C1)OCCO[C@H]1CC[C@@]2(C)C(=CC[C@H]3[C@@H]4CC[C@H]([C@H](C)CCCC(C)C)[C@@]4(C)CC[C@@H]32)C1` (stereo partly drawn) [E0087]: in data set [1] (setting [8]), the “Final size (nm)” value is given as 119.2 nm and the PDI came out at 0.148. Besides, in data set [2], the pKa came to 6.38. Also, in the data set on Factor VII (setting [9]), the FVII inhib % came to 69%.
For `CCCCC/C=C\C/C=C\CCCCCCCCCCC(CN(C)C)OC(=O)CCC(=O)O[C@H]1CC[C@@]2(C)C(=CCC3C2CC[C@@]2(C)C3CC[C@@H]2[C@H](C)CCCC(C)C)C1` (stereo partly drawn) [E0174, reference compound], the entries for the “Final size (nm)” value in data set [1] (setting [3]) and in data set [1] (setting [4]) were 117 nm and 90 nm, respectively. The PDI came out at 0.23 in data set [1] (setting [3]) and 0.21 in data set [1] (setting [4]). In addition, the pKa in data set [2] was 5.15. In addition, the FVII inhib % amounted to 63.2% in the data set on Factor VII (setting [6]) and 3.5% with Factor VII (setting [7]).
For the molecule `CCCCC/C=C\C/C=C\CCCCCCCCOCC(CN1C[C@@H](C)O[C@@H](C)C1)OCCOCCO[C@H]1CC[C@@]2(C)C(=CC[C@H]3[C@@H]4CC[C@H]([C@H](C)CCCC(C)C)[C@@]4(C)CC[C@@H]32)C1` (stereo partly drawn) [E0006], the “Final size (nm)” value in data set [1] (setting [3]) is 146 nm; in data set [1] (setting [4]), 95 nm. Moreover, the PDI in data set [1] (setting [3]) is 0.04; in data set [1] (setting [4]) it was 0.142. For the same molecule, in data set [2], the pKa amounted to 4.88. For the same molecule, the FVII inhib % with Factor VII (setting [6]) is 15.7%; in the data set on Factor VII (setting [7]), 21.2%.
For the molecule `CCCCC/C=C\C/C=C\CCCCCCCCOCC(CN1CC2CCCN(C(=O)OC(C)(C)C)C2C1)OCCOCCO[C@H]1CC[C@@]2(C)C(=CCC3C2CC[C@@]2(C)C3CC[C@@H]2[C@H](C)CCCC(C)C)C1` (stereo partly drawn) [E0041], the “Final size (nm)” value in data set [1] (setting [3]) is listed as 95 nm; in data set [1] (setting [4]) it was 93 nm. Besides, the results for the PDI in data set [1] (setting [3]) and in data set [1] (setting [4]) were 0.37 and 0.21, respectively. In data set [2], this molecule returned a pKa of 4.8. Moreover, the results for the FVII inhib % in the data set on Factor VII (setting [6]) and in the data set with Factor VII (setting [7]) were −7.4% and 17.6%, respectively.
Consider `CCCCC/C=C\C/C=C\CCCCCCCCOCC(CN1CCCCC1)OC(=O)COCC(=O)O[C@H]1CC[C@@]2(C)C(=CCC3C2CC[C@@]2(C)C3CC[C@@H]2[C@H](C)CCCC(C)C)C1` (stereo partly drawn) [E0047], for which, in data set [1] (setting [4]), the “Final size (nm)” value was 112 nm and the PDI is on record as 0.061. The same molecule gave a pKa in data set [2] of 5.55. For the same molecule, in the data set with Factor VII (setting [7]), the FVII inhib % is listed as −3.4%.

As usually defined, the pKa is the pH at which an ionisable group is half protonated. High values mean a group that holds its proton tightly, low ones a group that gives up its proton readily.
